Test [1] has as its system multi-species bacterial consortium (artificial consortium). Nature of the test: Dose protocol: growth inhibition (O.D. 650 nm, 4 hours) of artificial bacterial consortium in synthetic white water, I50 and synergy index. The format is cell-based. The following applies: for Synergy Index: <1.00 synergistic; for mg/l NH2Cl (alone or in the mixture) to yield 50% inhibition (I50) / mg/l NHCl2 (alone or in the mixture) to yield 50% inhibition (I50): concurrent feed, mg/l as Cl2. The procedure: The efficacies of the active materials and blends were determined using a dose protocol. The actives were evaluated in synthetic white water (see Smith et al., U.S. Pat. […] The materials were tested against multi-species bacterial consortium (also referred to as an artificial consortium) containing approximately equal numbers of six bacterial strains. Although the test strains are representative of organisms present in paper mill systems, the effect is not limited to these bacteria. Two of the strains were Klebsiella pneumonia (ATCC 13883) and Pseudomonas aeruginosa (ATCC 15442). The other four strains were isolated from paper mill systems and have been identified as Curtobacterium flaccumfaciens, Burkholderia cepacia, Bacillus maroccanus, and Pseudomonas […]. Each strain was grown on Tryptic Soy Agar overnight at 37° C. Sterile cotton-tipped swabs were used to aseptically transfer cells to a sterile solution of saline. Each cell suspension was prepared to a desired concentration as measured by turbidity before equal volumes of each strain were then combined to prepare the consortium. The bacterial consortium was distributed into the wells of a microtiter plate before additions of monohaloamine and/or dihaloamine were made. The microtiter plates were incubated at 37° C. Optical density (O.D.) readings at 650 nm were taken initially (t0) and after time 4 hours (t4) of incubation. […] The inhibition values can be plotted versus dosage for each active and the particular blend. […] Synergy Index (SI)=(QA÷Qa)+(QB÷Qb) where: • QA=quantity of compound A in mixture, producing the end point • Qa=quantity of compound A, acting alone, producing the end point • QB=quantity of compound B in mixture, producing the end point • Qb=quantity of compound B, acting alone, producing the end point […] A measured amount of monochloramine and a measured amount of dichloramine were added to a suspension of bacteria and the cell suspension incubated for a selected time period. The effectiveness of the combination of biocides was determined by measuring growth or lack thereof after an additional appropriate incubation time.

For test [2], the system named is artificial bacterial consortia. Kind of test: Standard challenge assay: numbers of bacteria surviving after contact time in mineral salt solution. The format is cell-based. As for the experimental part: The antibacterial efficacy of monochloramine and dichloramine alone and in combination were compared in a standard challenge assay. To perform the assay, artificial bacterial consortia were prepared using the same species as those in the microtiter assays. A mineral salt solution was prepared by combining K2HPO4 (1.2 mg/l), KH2PO4 (0.624 mg/l), (NH4)2SO4 (0.05 g/l), and NaCl (0.1 mg/l). This solution was sterilized by autoclaving (121° C., 15 min) and, after cooling, it was amended with the following: 10 ml/l of filter sterilized solution of 0.5% (w/v) of CaCl2.6H2O; 10 ml/l of filter sterilized solution of 2% MgSO4.7H2O; filter-sterilized glucose (0.01 g/l, final concentration); 1 ml of a filter-sterilized solution containing Na2EDTA (ethylene diamine tetra acetate) (1.58 g/100 ml), ZnSO4.7H2O (0.7 g/100 ml); MnSO4—H2O (0.18 g/100 ml); FeSO4.7H2O (0.16 g/100 ml); COCl2.6H2O (0.052 g/100 ml); NaMoO4.2H2O (0.042 g/100 ml); and CuSO4.5H2O (0.047 g/100 ml). Equal volumes of cell suspensions of each strain were then combined to prepare the consortium. The bacterial consortium was distributed into sterile glass containers and immediately used in challenge studies. To determine the effect of pH of the mineral salt solution on efficacy of monochloramine, dichloramine, and combinations thereof, the pH of the cell suspension was adjusted to desired levels using dilute solutions of sodium hydroxide or phosphoric acid, as appropriate. The pH values tested in the challenge studies were 5.0, 6.0, 7.0, and 8.0. The pH values represent the pH of whitewater typical of the majority of paper mills.
After the monohaloamine solution was prepared, the quantity needed to achieve a desired final concentration was transferred to the previously prepared bacterial consortium. Samples of the bacterial consortium were collected immediately before addition of the monochloramine and after contact times, usually 1, 10, and 20 minutes. Controls were untreated cell suspensions.
To perform a challenge study, monochloramine was prepared to a desired concentration by mixing appropriate quantities of 30% ammonium hydroxide and 6.2% percent sodium hypochlorite in a volume of deionized water in such a manner as to achieve equimolar ratios of Cl^− and NH2^+. After preparation of the monochloramine solution, the purity of the solution was verified by determining its absorbance spectrum. To prepare a dichloramine solution, the pH of a monochloramine solution was adjusted to down to 5.0. This ensured conversion of monochloramine to dichloramine. […] The concentrations of monochloramine and dichloramine in the solutions were confirmed by measuring total chlorine concentration by Hach DPD chlorine test.
In this example, a measured amount of monochloramine and a measured amount of dichloramine were added to a consortium of bacteria prepared to a density of approximately 1×10^6 cells per milliliter and the cell suspension incubated for a selected time. The consortium of bacteria is described above. The effectiveness of the combination of biocides was determined by measuring the number of bacteria that survived after the contact time. The efficacy of monochloramine, dichloramine, and combinations of the two actives were compared at different pH values. Bacterial consortia were prepared in mineral salts solutions with pH adjusted to selected values and challenged with monochloramine and dichloramine and combinations thereof. Samples for enumerating the number of surviving bacteria were collected at selected time intervals.
Although synergy was detected when monochloramine and dichloramine were combined in a 1:1 ratio, the results of Example 1 illustrated that optimum ratios were larger than 1:1 (monochloramine to dichloramine). In this example, bacterial consortia were prepared with the pH of the mineral salts solution adjusted to selected levels immediately before the cells were added. […]

Setting [3] is: pH 5.5, based on 50% inhibition.
The mark [4] stands for this setting: pH 8.0, based on 50% inhibition.

As to `NCl` [NH2Cl, monochloramine], the “Synergy Index” value in test [1] (setting [3]) and in test [1] (setting [4]) was 1.00 in each case. Also, the “mg/l NH2Cl (alone or in the mixture) to yield 50% inhibition (I50)” value amounted to 18.21 mg/L in test [1] (pH 5.5, synthetic white water) and 7.96 mg/L in test [1] (pH 8.0, synthetic white water). Further, the “Numbers of bacteria surviving after a 20 minute contact time (average of three values)” value (“Numbers of bacteria surviving” below) in test [2] (pH 5.0, 0.5 mg/l single active) stood at 4.97 log10; in test [2] (pH 5.0, 1.0 mg/l single active), 3.94 log10; in test [2] (pH 6.0, 0.5 mg/l single active), 5.14 log10; in test [2] (pH 6.0, 1.0 mg/l single active), 5.14 log10; in test [2] (pH 7.0, 0.5 mg/l single active) it was 5.47 log10; in test [2] (pH 7.0, 1.0 mg/l single active), 5.17 log10. For the same compound, the “Numbers of bacteria surviving” value in test [2] (pH 8.0, 0.5 mg/l single active) stood at 5.74 log10; in test [2] (pH 8.0, 1.0 mg/l single active), 5.71 log10.
Turning to `ClNCl` [NHCl2, dichloramine], the “Synergy Index” value in test [1] (setting [3]) and in test [1] (setting [4]) was 1.00 throughout. Besides, the “mg/l NHCl2 (alone or in the mixture) to yield 50% inhibition (I50)” value in test [1] (pH 5.5, synthetic white water) is 17.23 mg/L; in test [1] (pH 8.0, synthetic white water), 0.59 mg/L. In addition, the “Numbers of bacteria surviving” value in test [2] (pH 5.0, 0.5 mg/l single active) amounted to 5.58 log10; in test [2] (pH 5.0, 1.0 mg/l single active), 4.47 log10; in test [2] (pH 6.0, 0.5 mg/l single active), 5.17 log10; in test [2] (pH 6.0, 1.0 mg/l single active), 3.62 log10; in test [2] (pH 7.0, 0.5 mg/l single active), 5.52 log10; in test [2] (pH 7.0, 1.0 mg/l single active) it was 5.40 log10. Moreover, the “Numbers of bacteria surviving” value in test [2] (pH 8.0, 0.5 mg/l single active) was 5.62 log10; in test [2] (pH 8.0, 1.0 mg/l single active), 5.26 log10.

The record behind these values is US7820060B2, “Synergistic biocide and process for controlling growth of microorganisms” (Hercules Incorporated, priority 2005, dated 2010).
